“Also recorded” adds a separate entry of the source. Read-outs that look alike come from different tables or passages of the source.
Experiments:
11β-HSD1 Dehydrogenase [1] = biological target: T1, 11β-HSD1 Dehydrogenase (Rattus norvegicus, UniProt P16232); assay: 11β-HSD1 dehydrogenase assay in rat Leydig cell homogenates; type: biochemical; parameters: Freshly prepared rat Leydig cell homogenates were chosen since they provide a rich and reliable source of both 11β-HSD1 dehydrogenase and reductase; from tissue; host or cells: rat testicular Leydig cells, homogenate;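 note: tritiated corticosterone conversion by 11β-HSD1 dehydrogenase in Leydig homogenates with 3 mM NADP at pH 8.4, 37 °C for 10 min, products resolved by HPLC, inhibition relative to uninhibited enzyme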
T1 sequence (P16232 whole entry): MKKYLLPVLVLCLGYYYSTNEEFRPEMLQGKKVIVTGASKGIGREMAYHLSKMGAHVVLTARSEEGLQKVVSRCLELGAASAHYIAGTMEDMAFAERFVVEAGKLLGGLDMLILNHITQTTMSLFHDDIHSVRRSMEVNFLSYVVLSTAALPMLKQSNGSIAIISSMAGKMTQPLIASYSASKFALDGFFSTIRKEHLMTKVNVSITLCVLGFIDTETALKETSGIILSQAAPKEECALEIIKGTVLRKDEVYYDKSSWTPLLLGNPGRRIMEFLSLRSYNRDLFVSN
Description: Each enzyme reaction (described below) was stopped by adding 750 μL MeOH. After centrifugation, an aliquot of supernatant was analyzed by HPLC using a DuPont Zorbax C8 column.
11β-HSD1 dehydrogenase was assayed by incubating homogenates (13,000 cells equivalent) with 600 nM [^3H]-B (0.5 μCi) in the presence of 3 mM NADP, 50 mM Tris-HCl; pH 8.4 at 37° C. for 10 minutes in a total volume of 250 μL. 11β-HSD1 reductase was assayed by incubating homogenates (52,000 cells equivalent) with 600 nM [^3H]-11-dehydro-corticosterone in presence of 3 mM NADPH, 50 mM Tris-HCl; pH 7.4 at 37° C. for 20 minutes in a total volume of 250 μL.
Each concentration was tested in triplicate and the dose response curve, showing percentage inhibition versus log concentration of steroid was plotted. The data fitted a log-linear straight line.

11β-HSD2 = biological target: T2, 11β-HSD2 (Ovis aries, UniProt P50168); assay: 11β-HSD2 enzyme activity in sheep kidney microsomes; type: biochemical
T2 construct: incubating sheep kidney microsomal fraction (6.5 μg protein) with 50 nM corticosterone; from tissue; host or cells: sheep kidney microsomal fraction
T2 sequence (P50168 1-427): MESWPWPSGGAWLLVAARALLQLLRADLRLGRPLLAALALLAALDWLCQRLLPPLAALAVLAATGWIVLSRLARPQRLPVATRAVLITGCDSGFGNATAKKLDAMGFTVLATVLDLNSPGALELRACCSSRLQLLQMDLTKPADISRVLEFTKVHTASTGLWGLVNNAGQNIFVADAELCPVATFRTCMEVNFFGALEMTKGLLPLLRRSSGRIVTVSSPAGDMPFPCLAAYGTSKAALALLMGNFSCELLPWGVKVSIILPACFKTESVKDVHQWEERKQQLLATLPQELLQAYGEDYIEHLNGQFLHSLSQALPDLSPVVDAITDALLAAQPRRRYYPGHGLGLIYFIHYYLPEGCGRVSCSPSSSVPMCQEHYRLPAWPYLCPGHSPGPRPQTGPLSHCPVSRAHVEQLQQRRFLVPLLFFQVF
Description: The enzymatic reaction was termninated by addition of methanol and synthesis of 11-dehydro-corticosterone was quantitated by HPLC as described above.

11β-HSD1 Reductase [2] = biological target: T3, 11β-HSD1 Reductase (Rattus norvegicus, UniProt P16232); assay: 11β-HSD1 reductase assay in rat Leydig cell homogenates; conditions: for inhibitors of 11β-HSD1 reductase (summary in words): summary of the screening;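 for all read-outs here: rat Leydig cell homogenate incubated 20 min at 37 °C, pH 7.4, with tritiated 11-dehydro-corticosterone and 3 mM NADPH, product measured by HPLC, inhibition from triplicate dose–response curves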
T3 sequence (P16232 whole entry): as the sequence (P16232 whole entry) above

11β-HSD1 Reductase [3] = biological target: T3, 11β-HSD1 Reductase; assay: Table 1: inhibition of 11β-HSD1 reductase; type: biochemical; conditions: Table 1, inhibition in words
11β-HSD1 Dehydrogenase [4] = biological target: T1, 11β-HSD1 Dehydrogenase; assay: Table 1: inhibition of 11β-HSD1 dehydrogenase; type: biochemical; conditions: Table 1, inhibition in words
11β-HSD2 Dehydrogenase = biological target: T4, 11β-HSD2 Dehydrogenase (Ovis aries, UniProt P50168); assay: Table 1: inhibition of 11β-HSD2 dehydrogenase; type: biochemical; conditions: Table 1, inhibition in words
T4 sequence (P50168 1-427): T2 sequence (P50168 1-427)

[5] = rat Leydig cell homogenates, 600 nM corticosterone, NADP, corticosteroid series
[6] = rat Leydig cell homogenates, 600 nM corticosterone, NADP, corticosteroid series, read-out: Leydig Cell 11β-HSD1 Dehydrogenase [S]= 600 nM
[7] = 11β-HSD2, sheep kidney microsomes, 50 nM corticosterone, NAD+, aldosterone, cortisol, corticosterone series
[8] = 11β-HSD2, sheep kidney microsomes, 50 nM corticosterone, NAD+, aldosterone, cortisol, corticosterone series, read-out: Dehydrogenase [S] = 50 nM
[9] = rat Leydig cell homogenates, 600 nM 11-dehydro-corticosterone, NADPH, corticosteroid series
[10] = rat Leydig cell homogenates, 600 nM corticosterone, progesterone and androgen derivatives
[11] = rat Leydig cell homogenates, 600 nM corticosterone, progesterone and androgen derivatives, read-out: Leydig Cell 11β-HSDl Dehydrogenase [S] = 600 nM
[12] = read-out: Leydig Cell 11β-HSD1 Reductase [S] = 600 nM, rat Leydig cell homogenates, 600 nM 11-dehydro-corticosterone, progesterone and androgen derivatives

Row | Compound | Leydig Cell 11β-HSD1 Dehydrogenase [S]= 600 nM (11β-HSD1 Dehydrogenase [1]; [5]) | IC50 (11β-HSD1 Dehydrogenase [1]; [6]) [µM] | Dehydrogenase [S] = 50 nM (11β-HSD2; [7]) | IC50 (11β-HSD2; [8]) [µM] | Leydig Cell 11β-HSD1 Reductase [S]= 600 nM (11β-HSD1 Reductase [2]; [9]) | 11β-HSD1 Reductase (11β-HSD1 Reductase [3]) | 11β-HSD1 Dehydrogenase (11β-HSD1 Dehydrogenase [4]) | IC50 (11β-HSD1 Dehydrogenase [1]) [µM] | IC50 (11β-HSD2) [µM] | IC50 (11β-HSD1 Reductase [2]) [µM] | also measured
1 | C[C@]12CC[C@@H](O)C[C@H]1CC[C@H]1[C@@H]3CC[C@H](C(=O)CO)[C@@]3(C)CC(=O)[C@@H]12 [3α,5β-TH- 11 -dehydro-corticosterone, 5β-Pregnan-3α,21-diol-11,20-dione] | inactive | > 100 | inactive | > 10 | inactive |  |  |  |  |  | IC50 (11β-HSD1 Reductase [2]; read-out: Leydig Cell 11β-HSD1 Reductase [S]= 600 nM, rat Leydig cell homogenates, 600 nM 11-dehydro-corticosterone, NADPH, corticosteroid series): > 100 µM
2 | C[C@]12CC[C@@H](O)C[C@H]1CC[C@@H]1[C@H]2C(=O)C[C@]2(C)[C@@H](O)CC[C@@H]12 [3α,5α-reduced-11-keto-testosterone] |  |  |  |  |  | Selective Inhibitor | No Inhibition |  |  |  | 
3 | C[C@]12CC[C@@H](O)C[C@H]1CC[C@@H]1[C@H]2C(=O)C[C@]2(C)C(=O)CC[C@@H]12 [11 -Keto-androsterone, 5α-Androstan-3a-ol-11,1 7-dione] |  |  |  |  |  | Selective Inhibitor | No Inhibition | > 100 | > 10 | > 100 | 
4 | C[C@]12CCC(=O)C=C1CC[C@@H]1[C@H]2C(=O)C[C@]2(C)C(=O)CC[C@H]12 (stereo in doubt) [11 -Keto-Androstenedione, 4-Androsten-11,3,17-trione] |  |  |  |  |  | Selective Inhibitor | No Inhibition | > 100 | > 10 | 21 | Leydig Cell 11β-HSDl Dehydrogenase [S] = 600 nM (11β-HSD1 Dehydrogenase [1]; [10]): inactive; Sheep kidney 11β-HSD2 [S] = 50 nM (11β-HSD2; sheep kidney microsomes, corticosterone substrate, progesterone and androgen derivatives): inactive; 11β-HSD2 Dehydrogenase (11β-HSD2 Dehydrogenase): No Inhibition
5 | C[C@]12CC[C@@H](O)C[C@H]1CC[C@@H]1[C@@H]2C(=O)C[C@]2(C)C(=O)CC[C@@H]12 [11 -Keto-etiocholanolone] |  |  |  |  |  |  |  |  |  |  | IC50 (11β-HSD1 Dehydrogenase [1]; [11]): > 100 µM; IC50 (11β-HSD1 Reductase [2]; [12]): > 100 µM
6 | C[C@]12CC[C@H](O)C[C@@H]1CC[C@H]1[C@@H]3CC[C@H](O)[C@@]3(C)CC(=O)[C@@H]12 [11 -Keto-3β,5α-TH-Testosterone] |  |  |  |  |  |  |  |  |  |  | Leydig Cell 11β-HSDl Dehydrogenase [S] = 600 nM (11β-HSD1 Dehydrogenase [1]; [10]): weak inhibitor; IC50 (11β-HSD1 Dehydrogenase [1]; [11]): 50 µM; IC50 (11β-HSD2; sheep kidney microsomes, corticosterone substrate, progesterone and androgen derivatives, read-out: Sheep kidney 11β-HSD2 [S] = 50 nM): 8 µM; IC50 (11β-HSD1 Reductase [2]; [12]): 0.65 µM; inhibitors of 11β-HSD1 reductase (summary in words) (11β-HSD1 Reductase [2]; listed as 11-Keto-3β,5α-TH-Testosterone): potent inhibitors; inhibitors of 11β-HSD1 reductase (summary in words) (11β-HSD1 Reductase [2]; listed as 11-keto-3β,5α-TH-testosterone): high potency
7 | C[C@]12CC[C@@H](O)C[C@H]1CC[C@@H]1[C@@H]2[C@@H](O)C[C@@]2(C)[C@H]1CC[C@]2(O)C(=O)CO [3α,5β-TH-Cortisol, 5β-Pregnan-3α,11β,17α,21-tetrol-20-one] | inactive | > 100 | inactive | > 10 | inactive |  |  |  |  | > 100 | 
8 | C[C@]12CC[C@@H](O)C[C@@H]1CC[C@@H]1[C@@H]2[C@@H](O)C[C@]2(C)[C@@H](O)CC[C@@H]12 [11β-OH-androstanediol, 5α-Androstan-3α,11β,17β-triol] |  |  |  |  |  |  |  | 5 | 4.5 | 11.5 | inhibitors of 11β-HSD1 dehydrogenase (summary in words) (11β-HSD1 Dehydrogenase [1]; summary of the screening): potent inhibitors; also recorded: high potency
9 | C[C@]12CC[C@@H](O)C[C@@H]1CC[C@@H]1[C@@H]2C(=O)C[C@@]2(C)[C@H]1CC[C@]2(O)C(=O)CO [3α,5α-TH- Cortisone, 5α-Pregnan-3α,17α,21-triol-11,20-dione] |  | > 100 |  |  |  |  |  |  |  | 4.3 | 
10 | C[C@]12CC[C@@H](O)C[C@H]1CC[C@@H]1[C@@H]2[C@@H](O)C[C@]2(C)[C@@H](C(=O)CO)CC[C@@H]12 [3α,5β-TH-Corticosterone, 5β-Pregnan-3α,11β,21-triol-20-one] | inactive | > 100 | inactive | > 10 | inactive |  |  |  |  | > 100 | 

Source: patent US20070093460A1, “Methods of using selective 11beta-HSD inhibitors to treat gluocorticoid associated states” (priority 2005, published 2007)
